Assay results taken from article PMC11859264, “Discovery of a Novel Multitarget Analgesic Through an In Vivo-Guided Approach” (Pharmaceuticals, 2025).

Legend:
[1] = biological target: T1, Transporter, Serotonin (SERT) (Homo sapiens, UniProt P31645); assay: Radioligand binding, [3H] Paroxetine, Eurofins
T1 construct: host or cells: HEK-293 cells

[2] = biological target: T2, Dopamine D2L (Homo sapiens, UniProt P14416); assay: Radioligand binding, [3H] Spiperone, Eurofins
T2 construct: host or cells: CHO cells

[3] = Metabolic stability assay in liver microsomes; format: in vitro ADME; settings: 30 min
Description: In the in vitro metabolic stability study, the stability of compound 29 was evaluated using liver microsomes derived from both mouse and human sources. The primary objectives of this study were to determine the metabolic clearance rate of compound 29 over a defined time period, enabling an assessment of its intrinsic clearance. Microsomal incubations were performed, and the percentage of intact compound remaining was quantified at specific time points. […] The remaining substrate was quantified using the Nexera XR system (Shimadzu, Japan) and TSQ Vantage mass spectrometer (Thermo, Waltham, MA, USA). […] Metabolites were analyzed using the Multiple Reaction Monitoring (MRM) quantification mode in the Xcalibur software (version 4.4). The experiment was performed in duplicate with variability within 15%. Results were calculated as % remaining by comparing the test compound quantified after a 30 min reaction to the initial value at 0 min.

[4] = Cytotoxicity assay (MTT); format: cell-based; settings: mouse, HT-22 hippocampal neuronal cells, HT-22 cells, read-out: cell viability relative to the untreated control group
Description: In the in vitro toxicity study, we initially evaluated the cytotoxic potential of compound 29 using a hippocampal neuronal cell line (HT-22), a commonly used model for assessing neurotoxicity. Cell viability was determined after exposure to compound 29 at a concentration of 10 μM.
HT-22 (mouse hippocampal cells) were cultured in Dulbecco’s Modified Eagle’s Medium (DMEM, GIBCO) supplemented with 10% (v/v) fetal bovine serum and antibiotics (100 µg/mL penicillin/streptomycin mix) in a humidified atmosphere at 37 °C with 5% CO2. A total of 5000 HT-22 cells per well were seeded into a clear 96-well plate one day prior to the assay. On the day of the experiment, the medium was removed, and the cells were treated with 25 µL of each compound at a concentration of 10 µM. The plates were incubated at 37 °C for 18 h. Subsequently, 15 µL of 3-[4,5-dimethylthiazol-2-yl]-2,5-diphenyltetrazolium bromide (MTT) solution (5 mg/mL) was added to each well, and the plates were incubated for an additional 3 h. The resulting formazan crystals were dissolved in dimethyl sulfoxide (DMSO), and the absorbance at 570 nm was measured using a microplate reader (Sunrise, TECAN). Optical density (OD) values from each well were normalized by subtracting the vehicle control, and cell viability was calculated by considering the signal from the vehicle control as 100%.

[5] = tested on: panel of 47 drug target molecules; assay: Screening against a panel of pain-related drug targets at 10 μM; format: binding
Description: To elucidate the mechanism of action of compound 29 in producing analgesic effects, its inhibitory effects were systematically evaluated through a screening process. The compound was tested at a concentration of 10 μM against a diverse panel of 47 drug target molecules that are closely associated with pain modulation pathways.
The screening of pain-related receptors for the mechanism of action study of compound 29 was conducted by outsourcing the experiment to Eurofins (https://www.eurofins.com, accessed on 30 July 2024). Methods employed in this study have been adapted from the scientific literature to maximize reliability and reproducibility. Reference standards were run as an integral part of each assay to ensure the validity of the results obtained. […] Where presented, IC50 values were determined by a non-linear, least squares regression analysis using MathIQTM (ID Business Solutions Ltd., Woking, Surrey, UK). Where inhibition constants (Ki) are presented, the Ki values were calculated using the equation of Cheng and Prusoff using the observed IC50 of the tested compound, the concentration of radioligand (*) employed in the assay, and the historical values for the KD of the ligand (obtained experimentally at Eurofins Panlabs, Inc.). Where presented, the Hill coefficient (nH), defining the slope of the competitive binding curve, was calculated using MathIQTM.

[6] = biological target: hERG (Homo sapiens, UniProt Q12809); assay: in vitro
[7] = biological target: CYP2C9 (Homo sapiens, UniProt P11712); assay: in vitro; settings: microsomes, pH 7.4, CYP2C9 % of inhibition
Sequence of CYP2C9 (P11712 whole entry): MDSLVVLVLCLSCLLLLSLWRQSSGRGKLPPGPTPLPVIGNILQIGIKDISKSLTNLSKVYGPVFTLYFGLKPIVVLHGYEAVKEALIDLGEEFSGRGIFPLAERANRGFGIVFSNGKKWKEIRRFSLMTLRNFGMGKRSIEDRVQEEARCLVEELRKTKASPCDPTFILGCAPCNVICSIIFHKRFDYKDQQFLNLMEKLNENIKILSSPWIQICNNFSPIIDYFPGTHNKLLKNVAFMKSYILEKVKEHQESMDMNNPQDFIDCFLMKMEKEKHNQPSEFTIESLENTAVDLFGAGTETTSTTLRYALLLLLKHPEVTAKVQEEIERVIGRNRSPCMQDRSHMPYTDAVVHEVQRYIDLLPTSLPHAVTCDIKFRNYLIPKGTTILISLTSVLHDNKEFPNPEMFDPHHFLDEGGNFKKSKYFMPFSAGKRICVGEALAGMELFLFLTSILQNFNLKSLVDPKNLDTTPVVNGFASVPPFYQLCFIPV

T2 sequence (P14416 whole entry): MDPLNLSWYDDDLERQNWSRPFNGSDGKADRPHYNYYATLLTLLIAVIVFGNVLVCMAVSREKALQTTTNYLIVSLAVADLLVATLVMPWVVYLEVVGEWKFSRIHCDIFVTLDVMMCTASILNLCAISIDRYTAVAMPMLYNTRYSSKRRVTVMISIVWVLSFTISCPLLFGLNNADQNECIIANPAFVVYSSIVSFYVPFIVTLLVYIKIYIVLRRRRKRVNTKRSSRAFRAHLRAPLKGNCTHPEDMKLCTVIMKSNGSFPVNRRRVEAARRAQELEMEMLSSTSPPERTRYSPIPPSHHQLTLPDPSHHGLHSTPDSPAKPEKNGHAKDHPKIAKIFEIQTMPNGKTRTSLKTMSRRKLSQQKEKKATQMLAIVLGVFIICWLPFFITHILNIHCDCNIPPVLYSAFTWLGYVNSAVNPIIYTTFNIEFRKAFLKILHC
T1 sequence (P31645 whole entry): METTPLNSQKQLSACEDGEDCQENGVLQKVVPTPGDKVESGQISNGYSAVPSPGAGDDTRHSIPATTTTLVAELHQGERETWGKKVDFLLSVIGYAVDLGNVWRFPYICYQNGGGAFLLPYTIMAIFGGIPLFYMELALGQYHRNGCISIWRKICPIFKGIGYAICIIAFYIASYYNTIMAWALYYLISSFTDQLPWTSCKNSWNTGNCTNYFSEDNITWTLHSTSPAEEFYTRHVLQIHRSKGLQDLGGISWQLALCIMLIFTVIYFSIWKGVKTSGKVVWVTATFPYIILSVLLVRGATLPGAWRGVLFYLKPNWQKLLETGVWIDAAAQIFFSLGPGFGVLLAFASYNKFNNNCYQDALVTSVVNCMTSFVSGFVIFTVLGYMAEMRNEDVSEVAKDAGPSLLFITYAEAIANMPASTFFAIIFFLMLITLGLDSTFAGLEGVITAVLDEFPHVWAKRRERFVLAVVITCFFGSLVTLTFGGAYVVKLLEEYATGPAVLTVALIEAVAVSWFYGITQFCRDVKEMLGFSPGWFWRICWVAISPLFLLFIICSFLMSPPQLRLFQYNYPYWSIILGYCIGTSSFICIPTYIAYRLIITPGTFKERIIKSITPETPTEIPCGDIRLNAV
Sequence of hERG (Q12809 whole entry): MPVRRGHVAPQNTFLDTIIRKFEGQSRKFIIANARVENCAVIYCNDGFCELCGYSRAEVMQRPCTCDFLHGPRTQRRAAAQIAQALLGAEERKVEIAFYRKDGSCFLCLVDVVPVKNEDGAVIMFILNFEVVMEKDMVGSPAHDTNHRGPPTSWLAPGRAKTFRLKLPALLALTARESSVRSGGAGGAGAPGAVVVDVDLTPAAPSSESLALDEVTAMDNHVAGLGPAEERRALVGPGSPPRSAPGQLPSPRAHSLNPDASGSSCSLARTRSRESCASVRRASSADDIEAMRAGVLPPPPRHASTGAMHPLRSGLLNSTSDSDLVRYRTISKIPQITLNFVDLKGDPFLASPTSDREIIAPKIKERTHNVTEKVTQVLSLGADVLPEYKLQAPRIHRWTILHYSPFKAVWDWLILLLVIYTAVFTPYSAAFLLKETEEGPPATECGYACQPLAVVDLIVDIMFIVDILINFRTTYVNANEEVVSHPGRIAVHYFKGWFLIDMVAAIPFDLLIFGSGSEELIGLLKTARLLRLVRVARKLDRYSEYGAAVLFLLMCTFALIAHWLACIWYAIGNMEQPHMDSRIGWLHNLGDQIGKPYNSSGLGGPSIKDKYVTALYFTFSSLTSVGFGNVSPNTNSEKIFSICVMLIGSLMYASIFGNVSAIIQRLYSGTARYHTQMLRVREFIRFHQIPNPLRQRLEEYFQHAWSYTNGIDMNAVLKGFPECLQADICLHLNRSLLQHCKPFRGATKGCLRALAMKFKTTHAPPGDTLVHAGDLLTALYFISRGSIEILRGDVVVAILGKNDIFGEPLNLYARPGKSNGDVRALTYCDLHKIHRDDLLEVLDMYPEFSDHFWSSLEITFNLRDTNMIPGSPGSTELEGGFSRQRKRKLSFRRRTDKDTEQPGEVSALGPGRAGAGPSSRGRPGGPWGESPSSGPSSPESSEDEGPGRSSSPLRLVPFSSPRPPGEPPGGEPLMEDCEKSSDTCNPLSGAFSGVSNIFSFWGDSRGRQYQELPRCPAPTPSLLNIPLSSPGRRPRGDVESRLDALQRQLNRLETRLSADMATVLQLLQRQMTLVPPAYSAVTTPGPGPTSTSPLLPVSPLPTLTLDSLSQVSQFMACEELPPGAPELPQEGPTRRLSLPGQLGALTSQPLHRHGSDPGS

For `N#Cc1ccc2[nH]cc(C(=O)NCCN3CCN(c4ccc5ccccc5n4)CC3)c2c1` [Compound 29, 5-Cyano-N-(2-(4-(quinolin-2-yl)piperazin-1-yl)ethyl)-1H-indole-3-carboxamide], which “nH (Hill coefficient)” value ([1]; SERT) is on record?
Its value is 0.84.

And the Ki ([1]; SERT, Cheng and Prusoff)?
The Ki was 130 nM.

What about the IC50 ([1]; SERT, human recombinant HEK-293 cells) of the same compound?
The IC50 was 780 nM.

And the “times more potent at SERT compared to fluoxetine” value ([1]; ratio of Ki values)?
Its value is 13.

And the “nH (Hill coefficient)” value ([2]; Dopamine D2L)?
The value was 0.86.

What about the Ki ([2]; Dopamine D2L, Cheng and Prusoff) of the same compound?
Its Ki is 1850 nM.

And the IC50 ([2]; Dopamine D2L, human recombinant CHO cells)?
Its IC50 is 5540 nM.

What about the “times the activity of reference compound spiperone” value ([2]; ratio of Ki values) of the same compound?
Its value is 0.02.

And the remaining at 0.5 h, 1 µM ([3]; pH 7.4, human liver microsomes)?
The remaining at 0.5 h, 1 µM was 55.6%.

And the remaining at 0.5 h, 1 µM ([3]; pH 7.4, mouse liver microsomes)?
Its remaining at 0.5 h, 1 µM is 51.2%.

And the viability at 18 h, 10 µM [4]?
Its viability at 18 h, 10 µM is > 100%.

What about the “number of targets with more than 50% inhibition” value [5] of the same compound?
Its value is 16.

What about the inhibition at 4 h, 10 µM [6] of the same compound?
Its inhibition at 4 h, 10 µM is 52.7%.

What about the inhibition at 15 min, 10 µM [7] of the same compound?
The inhibition at 15 min, 10 µM was < 50%.
